Experimental data published in US7037928B2, “Compositions of N-(methylethylaminocarbonyl)-4-(-3-methylphenylamino)-3-pyridylsulfonamide and cyclic oligosaccharides” (PLIVA, farmaceutska industrija, dionicko drustvo, priority 2000, dated 2006).

Test: Release of torasemide (active substance) in water, USP 24
Format: physicochemical
Settings: 37° C., 50 rpm, 1000 ml
Description: The physical mixture of the modification I of torasemide and β-cyclodextrin prepared according to the Example 1 of the present invention was subjected to testing the release of the active substance in water at the temperature of 37° C.
The inclusion complex of the modification I of torasemide and β-cyclodextrin to the Example 3 of the present invention was subjected to testing the release of the active substance in water at the temperature of 37° C.

## Cc1cccc(Nc2ccncc2S(=O)(=O)NC(=O)NC(C)C)c1 [Modification I of torasemide, N-(1-methylethylaminocarbonyl)-4-(3-methylphenylamino)-3-pyridylsulfonamide]
Time 0 min
  Released torasemide (%): 0%
Time 15 min
  Released torasemide (%): 0.7%
Time 30 min
  Released torasemide (%): 20.3%
Time 45 min
  Released torasemide (%): 38.5%
Time 60 min
  Released torasemide (%): 51.8%
Time 90 min
  Released torasemide (%): 68.5%
Time 120 min
  Released torasemide (%): 78.7%
